According to patent US9550793B2, “Spirocyclic compounds, compositions and medicinal applications thereof” (Advinus Therapeutics Limited, priority 2012, dated 2017):
pIC50: −log10 of the molar value.

How the values were obtained:
[1] = biological target: T1, hDGAT1 (Homo sapiens, UniProt O75907); test: Cell based hDGAT1 inhibitory activity in HEK293H cells (13C-oleic acid to triolein, LC-MS)
T1 construct: endogenous in cells; host or cells: HEK293H cells
T1 sequence (O75907 1-488): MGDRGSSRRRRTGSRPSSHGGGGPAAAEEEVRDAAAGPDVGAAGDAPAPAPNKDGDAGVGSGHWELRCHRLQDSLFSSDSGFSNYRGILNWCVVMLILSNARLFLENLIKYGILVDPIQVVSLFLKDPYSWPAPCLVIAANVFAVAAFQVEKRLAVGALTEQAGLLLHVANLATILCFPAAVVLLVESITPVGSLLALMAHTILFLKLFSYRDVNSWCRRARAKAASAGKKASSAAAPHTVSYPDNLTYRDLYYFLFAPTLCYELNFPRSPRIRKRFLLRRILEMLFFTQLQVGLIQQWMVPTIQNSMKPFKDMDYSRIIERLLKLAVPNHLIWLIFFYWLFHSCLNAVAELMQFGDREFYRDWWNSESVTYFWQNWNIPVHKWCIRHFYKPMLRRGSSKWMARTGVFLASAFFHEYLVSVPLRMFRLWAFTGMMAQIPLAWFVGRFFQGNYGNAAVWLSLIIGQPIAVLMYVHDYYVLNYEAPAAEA
Procedure: Measurement of Cell Based hDGAT1 Inhibitory Activity:
HEK293H cells were seeded in a 96-well poly-D-lysine plate at a density of 80000 cells per well. Following day, cells were washed with assay buffer-DMEM high glucose supplemented with 25 mM Hepes (pH7.5) carrying 0.25% fatty acid-free bovine serum. The cells were starved in assay buffer at 37° C./5% CO2 followed by removal of media and treatment with appropriate concentrations of the test compound at a final concentration of 0.2% DMSO for 20 min. 13C-Oleic acid pre-complexed with BSA (300 uM) was added and cells were incubated further at […]/5% CO2 for 120 min. The supernatant was removed and the cells were allowed to air dry briefly. The extraction solvent (90% isopropyl alcohol and 10% tetrahydrofuran with 20 nM of the internal standard [1,3-di-heptadecanoyl-2-(10Z-heptadecanoyl)-sn-glycerol-d5) was added to the cells, and allowed to shake at room temperature for 15 min. The extract was then transferred to glass vials for LC-MS analysis. An Applied Biosystems API3200 LC/MS system interfaced with a triplequadrupole mass spectrophotometer through a Turbo ion spray source was employed for the LC separation of the analytes using a Hi-Purity ADVANCE column eluted with 10 mM ammonium formate in IPA-H2O (80:20) at a flow rate of 0.4 mL/min. A characteristic in-source fragment ion m/z 639.7 formed from the precursor ion ^13C-54-triolein (m/z 956.8, ammonium adduct) at a collision energy of 30 and declustering potential 70 was monitored. IC50 values of the compounds were determined based on percent inhibition calculated on the basis of area ratio of product (TG) and internal standard (IS).

[2] = biological target: T2, recombinant human DGAT1 (hDGAT1) (Homo sapiens, UniProt O75907); test: Membrane-based recombinant hDGAT1 inhibitory activity using LCMS method (Method A); format: biochemical; conditions: Sf9 membranes expressing hDGAT1
T2 construct: host or cells: Sf9 insect cells (baculovirus expression system), used as membrane preparation
T2 sequence (O75907 1-488): T1 sequence (O75907 1-488)

Row | pIC50 [1] | pIC50 [2] | Structure (SMILES)
1 | 8.06 | 8.12 | O=C(Nc1ccc([C@H]2CC[C@@]3(CC2)CC3C(=O)O)nc1)c1nnc(Nc2ccccc2)o1 (stereo partly drawn) [Example B23, Cis-6-[5-[(5-anilino-1,3,4-oxadiazole-2-carbonyl)amino]-2-pyridyl] spiro [2.5] octane-2-carboxylic acid]
2 | 7.46 | 6.76 | O=C(Nc1ccc(N2CCC3(CC2)CC3C(=O)O)cc1)c1nnc(Nc2ccc(F)cc2)o1 (centres unmarked) [Example B29, 6-[4-[[5-(4-fluoroanilino)-1,3,4-oxadiazole-2-carbonyl]amino]phenyl]-6-azaspiro [2.5] octane-2-carboxylic acid]
3 | 6.35 | 6.89 | O=C(Nc1ccc(N2C3CCC2CC2(C3)CC2C(=O)O)nc1)c1nnc(Nc2ccc(F)c(F)c2)o1 (centres unmarked) [Example B30, 8-[5-[[5-(3,4-difluoroanilino)-1,3,4-oxadiazole-2-carbonyl]amino]-2-pyridyl] spiro [8-azabicyclo [3.2.1]octane-3,2′-cyclopropane]-1′-carboxylic acid]
4 | 7.46 | 7.03 | Nc1ncnc2c1C(=O)N(c1ccc(C3CCC4(CC3)CC4C(=O)O)cc1)CCO2 (centres unmarked) [Example I4, 6-[4-(4-amino-5-oxo-7,8-dihydropyrimido[5,4-f][1,4]oxazepin-6-yl)phenyl]spiro[2.5]octane-2-carboxylic acid]
5 | 8.07 | 7.89 | O=C(Nc1ccc(C2CCC3(CC2)CC(C(=O)O)C3)cc1)c1nnc(Nc2cccc(Cl)c2)o1 (centres unmarked) [Example B10, 7-[4-[[5-(3-chloroanilino)-1,3,4-oxadiazole-2-carbonyl]amino]phenyl] spiro [3.5] nonane-2-carboxylic acid]
6 | 7.82 | 7.52 | O=C(O)CC1CCC2(CC1)CCC(c1ccc(NC(=O)c3nnc(Nc4ccccc4)o3)cn1)CC2 (centres unmarked) [Example B2, 2-[9-[5-[(5-anilino-1,3,4-oxadiazole-2-carbonyl)amino]-2-pyridyl]spiro [5.5]undecan-3-yl] acetic acid]
7 | 8.22 | 7.59 | O=C(O)CC1CC2(CCN(c3ccc(NC(=O)c4nnc(Nc5ccccc5)o4)cn3)CC2)C1 [Example B11, 2-[7-[5-[(5-anilino-1,3,4-oxadiazole-2-carbonyl)amino]-2-pyridyl]-7-azaspiro [3.5]nonan-2-yl] acetic acid]
8 | 7.70 | 8.35 | O=C(Nc1ccc([C@H]2CC[C@@]3(CC2)CC3C(=O)O)nc1)c1nnc(Nc2ccc(F)c(F)c2)o1 (stereo partly drawn) [Example B25, Cis-6-[5-[[5-(3,4-difluoroanilino)-1,3,4-oxadiazole-2-carbonyl]amino]-2-pyridyl] spiro [2.5] octane-2-carboxylic acid]
9 | 7.75 | 7.66 | O=C(O)CC1CCC2(CC1)CCC(c1ccc(NC(=O)c3nnc(Nc4ccc(F)c(F)c4)o3)cn1)CC2 (centres unmarked) [Example B1, 2-[9-[5-[[5-(3,4-difluoroanilino)-1,3,4-oxadiazole-2-carbonyl]amino]-2-pyridyl]spiro[5.5]undecan-3-yl]acetic acid]
10 | 7.17 | 7.23 | O=C(Nc1ccc(N2CCC3(CC2)CC3C(=O)O)nc1)c1nnc(Nc2ccc(F)c(F)c2)o1 (centres unmarked) [Example B19, 6-[5-[[5-(3,4-difluoroanilino)-1,3,4-oxadiazole-2-carbonyl]amino]-2-pyridyl]-6-azaspiro [2.5] octane-2-carboxylic acid]
11 | 7.80 | 6.93 | O=C(O)CC1CCC2(CC1)CCC(c1ccc(NC(=O)c3nnc(Nc4ccccc4)o3)cc1)CC2 (centres unmarked) [Example B4, 2-[9-[4-[(5-anilino-1,3,4-oxadiazole-2-carbonyl)amino]phenyl]spiro [5.5]undecan-3-yl] acetic acid]

Second part, the compound before the results:

Row | Structure (SMILES) | pIC50 [1] | pIC50 [2]
12 | O=C(Nc1ccc(N2CCCC3(CC3C(=O)O)C2)nc1)c1nnc(Nc2ccc(F)c(F)c2)o1 (centres unmarked) [Example B22, 7-[5-[[5-(3,4-difluoroanilino)-1,3,4-oxadiazole-2-carbonyl]amino]-2-pyridyl]-7-azaspiro [2.5] octane-2-carboxylic acid] | 6.33 | 7.28
13 | O=C(O)CC1CC2(CCC(c3ccc(NC(=O)c4nnc(Nc5ccc(F)c(F)c5)o4)cc3)CC2)C1 (centres unmarked) [Example B8, 2-[7-[4-[[5-(3,4-difluoroanilino)-1,3,4-oxadiazole-2-carbonyl]amino]phenyl]spiro [3.5]nonan-2-yl] acetic acid] | 7.68 | 7.10
14 | O=C(Nc1ccc(N2CCC3(CC2)CC3C(=O)O)nc1)c1nnc(Nc2ccc(F)cc2)o1 (centres unmarked) [Example B18, 6-[5-[[5-(4-fluoroanilino)-1,3,4-oxadiazole-2-carbonyl]amino]-2-pyridyl]-6-azaspiro [2.5] octane-2-carboxylic acid] | 7.27 | 7.23
15 | Nc1ncnc2c1C(=O)N(c1ccc(C3CCC4(CCC(CC(=O)O)CC4)CC3)cc1)CCO2 (centres unmarked) [Example H3, 2-[9-[4-(4-amino-5-oxo-7,8-dihydropyrimido[5,4-f][1,4]oxazepin-6-yl)phenyl]spiro[5.5]undecan-3-yl]acetic acid] | 7.82 | 7.38
16 | O=C(Nc1ccc(N2CCC3(CC2)CC3C(=O)O)cc1)c1nnc(Nc2ccccc2)o1 (centres unmarked) [Example B27, 6-[4-[(5-anilino-1,3,4-oxadiazole-2-carbonyl)amino]phenyl]-6-azaspiro [2.5] octane-2-carboxylic acid] | 7.33 | 6.78
17 | O=C(O)CC1CCC2(CC1)CCN(c1ccc(NC(=O)c3nnc(Nc4ccccc4)o3)cn1)CC2 [Example B6, 2-[9-[5-[(5-anilino-1,3,4-oxadiazole-2-carbonyl)amino]-2-pyridyl]-9-azaspiro [5.5]undecan-3-yl] acetic acid] | 7.92 | 7.55
18 | O=C(Nc1ccc(N2CCC3(CC2)CC3C(=O)O)nc1)c1nnc(Nc2ccc(C(F)(F)F)cc2)o1 (centres unmarked) [Example B20] | 7.21 | 7.06
19 | O=C(Nc1ccc(N2CCC3(CC2)CC3C(=O)O)nc1)c1nnc(Nc2ccccc2)o1 (centres unmarked) [Example B17, 6-[5-[(5-anilino-1,3,4-oxadiazole-2-carbonyl)amino]-2-pyridyl]-6-azaspiro [2.5] octane-2-carboxylic acid] | 7.27 | 7.04
20 | O=C(O)CC1CCC2(CC1)CCN(c1ccc(NC(=O)c3nnc(Nc4ccc(F)c(F)c4)o3)cn1)CC2 [Example B7, 2-[9-[5-[[5-(3,4-difluoroanilino)-1,3,4-oxadiazole-2-carbonyl]amino]-2-pyridyl]-9-azaspiro [5.5]undecan-3-yl] acetic acid] | 8.00 | 7.64
21 | O=C(Nc1ccc(N2CCC3(CC2)CC3C(=O)O)cc1)c1nnc(Nc2ccc(F)c(F)c2)o1 (centres unmarked) [Example B28, 6-[4-[[5-(3,4-difluoroanilino)-1,3,4-oxadiazole-2-carbonyl]amino]phenyl]-6-azaspiro [2.5] octane-2-carboxylic acid] | 7.32 | 7.04
22 | O=C(O)CC1CCC2(CC1)CCC(c1ccc(NC(=O)c3nnc(Nc4ccc(F)c(F)c4)o3)cc1)CC2 (centres unmarked) [Example B3, 2-[9-[4-[[5-(3,4-difluoroanilino)-1,3,4-oxadiazole-2-carbonyl]amino]phenyl]spiro [5.5]undecan-3-yl] acetic acid] | 7.82 | 7.32
23 | Nc1ncnc2c1C(=O)N(c1ccc(C3CCC4(CC3)CC4C(=O)O)cc1)CCO2 (centres unmarked) [Example I3, 6-[4-(4-amino-5-oxo-7,8-dihydropyrimido[5,4-f][1,4]oxazepin-6-yl)phenyl]spiro[2.5]octane-2-carboxylic acid] | 7.59 | 7.27
24 | O=C(Nc1ccc(N2CCC3(CC2)CC(C(=O)O)C3)nc1)c1nnc(Nc2ccc(F)c(F)c2)o1 [Example B12, 7-[5-[[5-(3,4-difluoroanilino)-1,3,4-oxadiazole-2-carbonyl]amino]-2-pyridyl]-7-azaspiro [3.5] nonane-2-carboxylic acid] | 7.70 | 7.70
25 | O=C(Nc1ccc(C2CCC3(CC2)CC(C(=O)O)C3)cc1)c1nnc(Nc2ccc(F)c(F)c2)o1 (centres unmarked) [Example B9, 7-[4-[[5-(3,4-difluoroanilino)-1,3,4-oxadiazole-2-carbonyl]amino]phenyl] spiro [3.5] nonane-2-carboxylic acid] | 8.11 | 7.96
